# Test: Human HepG2 cell viability assay in 384 well format
# Type: toxicity, cell-based
# Parameters: dose 125 nL, time 70.5 hour; cytotoxicity at 70.5 h: concentration not given beside the values
# Conditions: HepG2 cells, read-out: Inhibition
row,Compound,cytotoxicity at 70.5 h [%]
1,O=C(Nc1ccc2c(c1)C(=O)NC2=O)c1ccc(Cl)s1,-10.9
2,CC(C)(C)n1ncc2c(=O)n(CC(=O)NCc3ccco3)cnc21,-11.6
3,CC(C)(C)n1ncc2c(=O)n(CC(=O)NCCc3ccccc3)cnc21,-13.5
4,Cc1c(C)n2c(SCC(=O)N3CCCCCC3)nnc2[nH]c1=O,-7.58
5,O=C(Nc1ccc(Br)cc1F)c1ccc(N2CCCCC2)nn1,-3.25
6,Cc1ccc(NC(=O)c2ccc(N3CCCCC3)nn2)c(Cl)c1,3.33
7,O=C(Nc1cc(C(F)(F)F)ccc1Cl)c1ccc(N2CCOCC2)nn1,-0.689
8,CSc1ccccc1NC(=O)c1ccc(N2CCOCC2)nn1,-3.96
9,CN1C(=O)c2cccc(NC(=O)c3ccc4c(c3)OCCO4)c2C1=O,21.1
10,COCCn1/c(=N\C(=O)CN(C)S(C)(=O)=O)sc2cccc(F)c21,20.2
11,COCCn1/c(=N\C(=O)CN(C)S(C)(=O)=O)sc2cc(Cl)ccc21,17
12,COCCn1/c(=N\C(=O)CN(C)S(C)(=O)=O)sc2cc(OC)ccc21,17.2
13,CCSc1nc(N)c(NC(=O)c2ccc(OC)c(OC)c2)c(=O)[nH]1,11.2
14,CCCSc1nc(N)c(NC(=O)c2ccc(OC)c(OC)c2)c(=O)[nH]1,12
15,CC(C)CSc1ccc(-n2cccn2)nn1,27.6
16,COc1ccc(CCNC(=O)NC2CC(=O)N(c3ccccc3)C2)cc1 (centres undefined),49
17,OC1CN(c2nc3c(C(F)(F)F)cccc3s2)C1,12.2
18,O=c1n(Cc2ccc(C(F)(F)F)cc2)nc2ncccn12,24.3
19,CC(=O)CSc1nc2c(cnn2CCO)c(=O)[nH]1,21.3
20,Cc1cc(NC(=O)C(C)C)n(-c2nc(C)c(C)c(=O)[nH]2)n1,56.9
21,CNC(=O)Cn1c(CO)cnc1SCc1ccccc1Cl,16.9
22,NC(=O)Cn1c(CO)cnc1SCc1ccccc1Cl,18.9
23,CN1C(=O)C(C)(C)COc2ccc(NS(=O)(=O)Cc3ccccc3)cc21,5.22

row,Compound,cytotoxicity at 70.5 h [%]
1,COCC(=O)Nc1ccc2c(c1)CN(C(=O)c1ccco1)CC2,23.8
2,Cc1cc(C(=O)N2CCN(c3nc4c(F)cccc4s3)CC2)no1,-7.99
3,Cc1cc(C(=O)N2CCN(c3nc4c(C(C)C)cccc4s3)CC2)no1,3.44
4,Cc1cnc2c(c1NCc1ccc3c(c1)OCO3)c(=O)n(C)c(=O)n2C,46.5
5,Cc1cnc2c(c1NCc1ccccn1)c(=O)n(C)c(=O)n2C,-11.2
6,CCc1cnc2c(c1NCc1ccc(OC)cc1)c(=O)n(C)c(=O)n2C,3.22
7,CCCNC(=O)Cn1nc(C)c2cnn(C(C)(C)C)c2c1=O,19.1
8,O=C(CC1CSc2nccc(=O)n21)NCc1cc(-c2ccco2)on1 (centres undefined),-11.9
9,Cc1cc(=O)n2c(n1)SCC2CC(=O)NCc1cc(-c2ccco2)on1 (centres undefined),-9.17
10,CCCc1cc(=O)[nH]c2nnc(SCC(=O)NCCc3ccccc3)n12,-5.81
11,Cc1ccccc1-n1ncc2c(=O)n(CCN3CCCC3)cnc21,26.8
12,CN1C(=O)c2cccc(NC(=O)c3cccc(S(C)(=O)=O)c3)c2C1=O,-4.72
13,CCCNC(=O)Cn1c(-n2nc(C)cc2C)nc(CCC)cc1=O,3.03
14,O=C(CSC1=NS(=O)(=O)c2cc(Cl)ccc2N1)c1ccccc1,23.9
15,CCCc1cc(=O)[nH]c(SCc2ccccn2)n1,-2.16
16,CCCNC(=O)Cn1cc(OC)c(=O)cc1CSc1nc(C)cc(C)n1,-13.1
17,O=c1nc(SCc2ccncc2)c2c(n1CCO)CCC2,-0.878
18,O=c1nc(SCc2ccc(Cl)cc2)c2c(n1CCO)CCC2,20.9
19,COc1ccc(NC(=O)Cn2nc(C)c(C(C)=O)c2C)cc1,2.67
20,Cc1ccc(S(=O)(=O)N(C)c2ccsc2C(=O)NCC(C)C)cc1,45.4
21,CCN(c1ccsc1C(=O)N1CCC(C)CC1)S(=O)(=O)c1ccccc1,-11.9
22,CCN(c1ccsc1C(=O)N1CCSCC1)S(=O)(=O)c1ccccc1,6.6
23,CCN(c1ccsc1C(=O)N1CCSCC1)S(=O)(=O)c1ccc(Cl)cc1,-3.47

row,Compound,cytotoxicity at 70.5 h [%]
1,Cc1nc[nH]c1CN(Cc1ccccc1)Cc1nccs1,-6.42
2,CC(C)N1CCCC2(CCN(C(=O)CCCn3cccn3)C2)C1=O (centres undefined),6.53
3,CCOc1ccc(C(=O)N(CCOC)Cc2c(C)nn(CC)c2C)o1,-6.36
4,COc1cc(CN2CCCC(Nc3cccc(F)c3)C2)cc(OC)c1O (centres undefined),-5.97
5,CN(Cc1cc2n(n1)CCNC2)Cc1n[nH]c2c1CCC2,-10.9
6,CC(=O)C1(c2ccccc2)CCN(C(=O)CC2CNCCO2)CC1 (centres undefined),-31.5
7,Cc1ccc(-c2cc(CNC(=O)N3CCC(O)CC3)on2)cc1,0.512
8,CC(C)n1ncc2cc(NC(=O)N3CCSCC3)cnc21,-3.2
9,COc1ccc(C(O)CNC(=O)NCc2nc(C)cs2)cc1 (centres undefined),-3.39
10,Cc1ccc(C(O)CNC(=O)NCc2csc(C)n2)cc1 (centres undefined),-2.4
11,Cc1csc(N2CCN(C(=O)C(C(C)C)n3cncn3)CC2)n1 (centres undefined),-1.51
12,CCCC(=O)NC1CCN(c2ccccc2S(=O)(=O)CC)CC1,17.6
13,CCS(=O)(=O)c1ccccc1N1CCC(NC(=O)C(C)C)CC1,5.03
14,Cc1nn(C)c(C)c1C1CCCN1CC(=O)Nc1cc(C(C)C)no1 (centres undefined),-3.36
15,Cc1cc(NC(=O)CN2CCCC2c2c(C)nn(C)c2C)on1 (centres undefined),-2.37
16,CCc1nc(C2CCCN(C(=O)c3cccnc3O)C2)no1 (centres undefined),-0.758
17,O=C(NCC1CCS(=O)(=O)C1)N1CCN(c2cnccn2)CC1 (centres undefined),3.28
18,CN1C(=O)CN(C(=O)c2ccc(=O)n(C)c2)c2ccccc21,1.56
19,Cc1csc(N2CCN(C(=O)C(C)n3cncn3)CC2)n1 (centres undefined),0.112
20,CC(C)C(C(=O)N1CCCN(c2nccs2)CC1)n1cncn1 (centres undefined),1.24
21,Cc1cnn(CC2CN(Cc3nc(C)c(C)o3)CCO2)c1 (centres undefined),1.07
22,CCn1ccnc1CN1CCN(C(C)C(=O)N2CCCCCC2)CC1 (centres undefined),-1.03
23,Cc1nc(CN(C)C2CCN(CC3CCOCC3)C2)no1 (centres undefined),-2.15

row,Compound,cytotoxicity at 70.5 h [%]
1,CC(C(=O)N1CCCCCC1)N1CCN(Cc2nccn2C)CC1 (centres undefined),-4.84
2,Cc1nc(CN(C)C2CCN(CC3CCC3)C2)no1 (centres undefined),-4.98
3,O=C(CCn1nc(-c2cccs2)oc1=O)Nc1cccc(F)c1,-6.28
4,CCOc1ncccc1CNC(=O)NC1CCOc2ccccc21 (centres undefined),-4.63
5,Cc1ccc(-n2nnc(C(=O)NC(C)C)c2C2CC2)cc1,-4.09
6,O=C(C1CCCCC1)N1CCN(Cc2nc(-c3ccco3)no2)CC1,-5.01
7,CC(C)c1ncncc1C(=O)N1CCN(Cc2cccnc2)CC1,-6.82
8,CCn1ccnc1CN1CCN(C(C)C(=O)N2CCCC2)CC1 (centres undefined),-3.5
9,Cc1cnn(CC2CN(Cc3nnc(-c4ccccc4)o3)CCO2)c1 (centres undefined),-8.48
10,COC(=O)CCNC(=O)c1nnn(-c2ccc(C)cc2)c1C1CC1,16.4
11,Cc1nc2cc(C(=O)N3CCCC(n4ccnc4)C3)ccc2n1C (centres undefined),-2.44
12,CC(=O)Nc1nc(CN2CCn3c(nnc3C(C)C)C2)cs1,-4.17
13,O=C(c1cc2c(s1)CCOC2)N1CCCC1Cn1cccn1 (centres undefined),-8.49
14,CS(=O)(=O)NC(=O)c1nnn(-c2cccc(F)c2)c1C1CC1,-7.64
15,COc1cccc(C(=O)NS(=O)(=O)c2cccc(C#N)c2)c1,-6.99
16,Cc1ccccc1C1(C(=O)N2CCCC(n3cncn3)C2)CC1 (centres undefined),-10.8
17,Cc1cnn(CC2CN(Cc3nc(C4CC4)no3)CCO2)c1 (centres undefined),-6.98
18,Cc1cnn(CC2CN(Cc3nnc(C(C)C)o3)CCO2)c1 (centres undefined),-6.07
19,CCc1nnc(CN2CCOC(Cn3cc(C)cn3)C2)o1 (centres undefined),-6.6
20,COc1cc(C2(C(=O)N3CCCC(n4cncn4)C3)CC2)ccc1C (centres undefined),-7.1
21,O=C(c1ccc2c(c1)COC2)N1CCCC(n2cncn2)C1 (centres undefined),-4.03
22,CC(NC(=O)CCCC(=O)c1cccs1)c1nnc2n1CCC2 (centres undefined),-9.34
23,O=C(c1cc(C2CC2)[nH]n1)N1CCN(Cc2ccc3c(c2)OCO3)CC1,-2.82

row,Compound,cytotoxicity at 70.5 h [%]
1,O=C(NCCNc1ncccn1)C1CCN(C(=O)c2ccoc2)CC1,-3.53
2,CCCC(=O)N1CCC(C(=O)NCCNc2ncccn2)CC1,0.692
3,CC(NC(=O)CCc1cccs1)c1nnc2n1CCCCC2 (centres undefined),8.51
4,Cc1nnc2n1CCN(Cc1csc(-c3ccsc3)n1)C2,-5.37
5,Cc1ncc2c(n1)CN(Cc1nc(-c3cccs3)no1)CC2,9.81
6,Cc1nn(C)c(C)c1C1CCCN1Cc1nc(-c2ccccn2)no1 (centres undefined),-5.05
7,O=C(CN1CC(n2cccn2)C1)NCCc1ccc(F)cc1,-1.33
8,CN1CCOC(CN(C(=O)CCCn2cccn2)c2nccs2)C1 (centres undefined),-1.25
9,CN1CCOC(CN(C(=O)CCc2ccco2)c2nccs2)C1 (centres undefined),10.3
10,CC(C)c1noc(CN2CCN(C(=O)c3ccncc3F)CC2)n1,-9.24
11,Cc1ccc(CC(=O)N(CC2CN(C)CCO2)c2nccs2)cn1 (centres undefined),11.5
12,Cc1csc(N2CCN(CC(=O)Nc3cccnc3)CC2C)n1 (centres undefined),2.59
13,Cc1cc(C)n(CC2CCCN2CCCc2nc3ccccc3o2)n1 (centres undefined),-1.67
14,CC(c1nc(C2CC2)no1)N1CCN(CCCN2CCCC2=O)CC1 (centres undefined),3.52
15,Cc1nnc(CN(C)C2CCN(Cc3nnc(C4CCC4)o3)C2)n1C (centres undefined),1.37
16,Cc1nc(CN2CCC(N(C)Cc3nnc(C4CC4)n3C)C2)oc1C (centres undefined),10.4
17,Cc1ccc(NC2CCN(C(=O)C(C)n3cncn3)CC2)nn1 (centres undefined),-0.916
18,COc1cccc(CNCc2ccnc(N3CCOCC3)c2)c1OC,-4.37
19,O=C(Nc1nc2c(s1)CNCC2)C1CC1,26.7
20,Brc1cccnc1OC1CCNCC1,23.3
21,CCCC(=O)N(CCCN1CCOCC1)c1nc2c(Cl)cccc2s1,1.41
22,Cc1cc(C)c(N(CC(O)CNCc2ccccc2)S(C)(=O)=O)c(C)c1 (centres undefined),-6.51
